From article PMC7464537, “Jaceidin Flavonoid Isolated from Chiliadenus montanus Attenuates Tumor Progression in Mice via VEGF Inhibition: In Vivo and In Silico Studies” (Plants, 2020)

How the values were obtained:
[1] = test system: breast cancer cell line (MCF-7); experiment: SRB cytotoxicity assay, breast cancer cell line; type: cell-based; conditions: Homo sapiens, MCF7, 48 h incubation, triplicate, ±SD
Method: (§1) The cytotoxic activity of the isolated compounds was measured in vitro against a human liver cancer cell line (HEPG2), a human breast cancer cell line (MCF-7) and a human melanocyte (normal cell line) (HFB-4) in comparison to Doxorubicin, using sulforhodamine B (SRB) assay. Human tumor cell lines (MCF-7, HepG2) used in this study were obtained from the American Type Culture collection (ATCC, Manassas, VA, USA). The tumor cell lines were maintained at the National Cancer Institute, Cairo, Egypt, by serial sub culturing. Cells were seeded in 96-well microliter plates at initial concentration of (3 × 10^3 cell/well) in a fresh medium and left for 24 h to attach to the plates before treatment of the tested compounds. Tested compounds were dissolved in DMSO and diluted with saline to the appropriate volume. After 24 h, cells were incubated with the appropriate concentration ranges of drugs (0, 12.5, 25, 50, 100 µg/mL), the wells were diluted to 150 µL with fresh medium and incubation was continued for 48 h at 37 °C. Control cells were treated with vehicle alone. Three wells were used for each drug concentration. After 48 h incubation, the cells were fixed with 50 µL of cold 10% trichloroacetic acid for 1 h at 4 °C, washed 5 times with distilled water using (Automatic Washer Tecan, Heidelberg, Germany) and then stained for 30 min at room temperature with 50 µL 0.4% SRB dissolved in 1% acetic acid. The wells were then washed 4 times with 1% acetic acid. The plates were air dried and the dye was solubilized with 100 µL/well 10 mM tris base (pH = 10.5). The Optical density (O.D.) of each well was measured spectrophotometrically at 570 nm with an ELISA microplate reader (sunrise Tecan reader, Germany). The percentage of cell survival was calculated as follows:(1) Surviving fraction=O.D.(treated cells)/O.D.(control cells)
(§2) The relation between surviving fraction and compound concentration was plotted to get the survival curve for tumor cell line after the specified time.

[2] = test system: liver cancer cell line (HepG2); experiment: SRB cytotoxicity assay, liver cancer cell line; type: cell-based; conditions: Homo sapiens, 48 h incubation, triplicate, ±SD
Method: as §1, §2

[3] = test system: human melanocyte (normal cell line) (HFB-4); experiment: SRB cytotoxicity assay, normal cell line; type: cell-based; conditions: 48 h incubation, triplicate, ±SD
Method: as §1, §2

[4] = test system: GSH and MDA levels in tumor tissues; experiment: ELISA of GSH and MDA levels in tumor homogenates; type: in vivo, female Swiss albino mice; conditions: extract 200 mg/kg or jaceidin 50 mg/kg three times weekly
Method: (§3) Groups 1: mice treated with saline (5 mL/kg). All therapies continued for 21 days. Group 2: mice treated with C. montanus extract 200 mg/kg three times weekly. Group 3: mice treated with Jaceidin 50 mg/kg three times weekly.
(§4) One day after the end of the experiment (day 21), mice were subjected to light ether anesthesia and sacrificed by cervical dislocation; blood samples were collected by cardiac puncture. Blood samples were maintained at room temperature for 30 min and centrifuged at 12,000× g for 10 min. Then, sera were separated and stored at −20 °C until used. An ELISA kit (Sun Red Biotechnology Company, Shanghai, China) was employed for estimating serum VEGF level according to the manufacturer’s protocol. The color intensity was measured at 450 nm using an automated ELISA reader (Europe S.A., Belgium). Tumor was dissected into two halves; the first half was kept at −20 °C to be used in estimating MDA and GSH levels. The second half was cut into small pieces, then fixed in 10% phosphate-buffered formalin for histopathological examination.
Using a frozen sample, a part of tumor was weighted and homogenized as 10% (w/v) in phosphate-buffered saline using a Teflon homogenizer (Glass col homogenizer system, Vernon Hills, IL, USA). Homogenates were then centrifuged at 15,000× g for 10 min at 4 °C. After centrifugation, the supernatants were collected into 2 dry tubes and kept at −80 °C. The levels of MDA and GSH were determined in the tumor homogenates of […] using ELISA kits for MDA (Catalog No. MBS741034) and GSH (Catalogue Number: MBS026635) according to the manufacturer’s instructions.

[5] = test system: Ehrlich's ascites carcinoma (EAC) solid tumors; experiment: In vivo antitumor activity: tumor weight and histopathology of EAC solid tumors; design: species or system female Swiss albino mice; conditions: extract 200 mg/kg or jaceidin 50 mg/kg three times weekly
From the text: Female Swiss albino mice with original body weight of 20–26 g and age of 8–10 weeks was used in the current experiment and fixed housing conditions were maintained at a normal dark/light cycle. Mice were housed in groups of six in polyethylene cages where food and water were provided ad libitum. The Research Ethics Committee at the Faculty of Pharmacy, Suez Canal University (license number 201809RA1), approved the study of protocol. Ehrlich’s Ascites Carcinoma is commonly employed as a solid form and easy to grow in suspension, when injected in the peritoneal cavity of female mice. Mice carrying the EAC cell line were obtained from the Department of Tumor Biology at the National Cancer Institute (Cairo, Egypt). The viability of EAC cells was ensured employing Trypan blue dye exclusion method. Then, EAC cells suspension was prepared in sterile saline solution to get a final working suspension; each 0.1 mL of which contained 2.5 million of EAC cells. At the beginning of the experiment, mice were shaved at their back, and inoculated with 0.1 mL of the EAC suspension.
Seven days after inoculation with the tumor cells in all female mice, mice were randomly divided into three groups, ten mice in each. The different treatments were started as follows;
as §3, §4
After fixation, samples were dehydrated in ascending grades of ethyl alcohol, cleared in xylol, embedded in paraffin wax, and then subjected to routine histopathological procedures. Sectioning was done at 5–7 µm thick followed by staining with Hematoxylin and Eosin (H&E). Digital imaging of representative areas was captured using image capture engine software (AMT V600.259) which attached to Olympus CX 41biocular microscope. Histopathological analysis of the digital images of solid tumor was performed by quantities the mitotic figures and tumor giant cells. For counting, ten sections from each experimental group were analyzed at scale bar 20 µm by using image J software that was developed by the National Institute of Health (Betheda, MD, USA). Histopathological examinations were evaluated blindly.

[6] = test system: vascular endothelial growth factor B (VEGF-B); experiment: ELISA of serum VEGF level in EAC-bearing mice; type: in vivo, female Swiss albino mice; conditions: extract 200 mg/kg or jaceidin 50 mg/kg three times weekly
Method: as §3, §4

[7] = EAC solid tumors in female mice, 21 days

Structure (SMILES)	IC50 [1]	IC50 [2]	IC50 [3]	also measured
C=C1CCC[C@]2(C)CCC(C(C)(C)O)C[C@@]12OO (stereo partly drawn) [Compound 2, 5α-hydroperoxy-β-eudesmol]	41.5 ± 0.55 µM	39.7 ± 0.65 µM	> 200 µM	–
COc1cccc2c1C(=O)c1c(O)c3c(c(O)c1C2=O)C[C@@](O)(C(=O)CO)C[C@@H]3O[C@H]1C[C@H](N)[C@H](O)[C@H](C)O1 [Doxorubicin, reference compound]	4 ± 0.25 µM	4.58 ± 0.47 µM	14.7 ± 0.5 µM	–
C=C(C)[C@@H]1CC[C@]2(C)CCC[C@](C)(O)[C@H]2C1 [Compound 1, Intermedeol]	45.6 ± 0.5 µM	48.2 ± 0.3 µM	> 200 µM	–
COc1cc(-c2oc3cc(O)c(OC)c(O)c3c(=O)c2OC)ccc1O [Compound 4, 5,7,4’-trihydroxy-3,6,3’-trimethoxyflavone]	9.3 ± 0.3 µM	9.7 ± 0.26 µM	> 200 µM	GSH levels in tumor tissues ([4]; mean ± SD, tumor control 11.62 ± 1.96): 29.25 ± 3.36; MDA levels in the tumor tissues ([4]; mean ± SD, tumor control 15.18 ± 1.89): 4.25 ± 1.28; GSH increase compared to tumor control ([4]; tumor tissues): 2.5 folds; MDA decrease compared to tumor control ([4]; tumor tissues): 72%; mean tumor weight [5, 7]: 0.032 g; tumor weight decrease compared to tumor control [5, 7]: 96.4%; necrosis in the tumor tissues ([5]; H&E histopathology, mean ± SD, tumor control 3.46 ± 0.68): 1.63 ± 0.68; number of tumor giant cells in the tumor tissues ([5]; H&E histopathology, mean ± SD, tumor control 7.65 ± 2.48): 1.30 ± 1.08; number of mitotic figures in the tumor tissues ([5]; H&E histopathology, mean ± SD, tumor control 31.45 ± 5.46): 5.20 ± 2.35; mitotic figure decrease compared to tumor control ([5]; H&E histopathology): 83.47%; necrosis decrease compared to tumor control ([5]; H&E histopathology): 53.01%; tumor giant cell decrease compared to tumor control ([5]; H&E histopathology): 83%; serum VEGF decrease compared to tumor control [6]: 61.7%; serum VEGF levels ([6]; mean ± SD, tumor control 71.46 ± 1.88): 27.3 ± 2.82
COc1ccc(-c2oc3cc(O)cc(O)c3c(=O)c2OC)cc1OC [Compound 3, 5,7-dihydroxy-3,3’,4’-trimethoxyflavone]	10.7 ± 0.4 µM	30.5 ± 0.61 µM	> 200 µM	–
CC(C)(O)[C@@]1(O)CC[C@]2(C)C(C1)[C@@](C)(O)CC[C@H]2O (stereo partly drawn) [Compound 6, 1β,4β,7β, 11-tetrahydroxyeudesmane]	33.2 ± 0.35 µM	35.1 ± 0.6 µM	> 200 µM	–
C=C(C)[C@]1(O)CC[C@]2(C)[C@H](O)CC[C@](C)(O)[C@@H]2C1 [Compound 5, Eudesm-11,13-ene-1β,4β,7α-triol]	38.5 ± 0.55 µM	33.4 ± 0.49 µM	> 200 µM	–
